The source made the active and inactive calls. Where only a bound is given, the exact number is not on record here.

Results on 15 compounds are retold here after ChEMBL document CHEMBL1201862, “PubChem BioAssay data set” (2004).

The target in assay [1] is Ras and Rab interactor 1/Tyrosine-protein kinase ABL1 (Homo sapiens, UniProt P00519+Q13671). The format is functional.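 Also: biochemical TR-FRET dose-response test measuring inhibition of binding between Rin1 and Abl proteins.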
Assay [2] can be described thus: cytotoxicity in HEK-293T cells, dose response, cytotoxicity control for TCR NF-kB inhibitor project, luminescence, T-cell screen hits (AID 489026).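 Also: cells exposed to compound about 14 hours before the viability readout.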 The assay is classed as functional, cell-based.
Assay [3] concerns the target T1, Microphthalmia-associated transcription factor (Homo sapiens, UniProt O75030).
T1 sequence (O75030 whole entry): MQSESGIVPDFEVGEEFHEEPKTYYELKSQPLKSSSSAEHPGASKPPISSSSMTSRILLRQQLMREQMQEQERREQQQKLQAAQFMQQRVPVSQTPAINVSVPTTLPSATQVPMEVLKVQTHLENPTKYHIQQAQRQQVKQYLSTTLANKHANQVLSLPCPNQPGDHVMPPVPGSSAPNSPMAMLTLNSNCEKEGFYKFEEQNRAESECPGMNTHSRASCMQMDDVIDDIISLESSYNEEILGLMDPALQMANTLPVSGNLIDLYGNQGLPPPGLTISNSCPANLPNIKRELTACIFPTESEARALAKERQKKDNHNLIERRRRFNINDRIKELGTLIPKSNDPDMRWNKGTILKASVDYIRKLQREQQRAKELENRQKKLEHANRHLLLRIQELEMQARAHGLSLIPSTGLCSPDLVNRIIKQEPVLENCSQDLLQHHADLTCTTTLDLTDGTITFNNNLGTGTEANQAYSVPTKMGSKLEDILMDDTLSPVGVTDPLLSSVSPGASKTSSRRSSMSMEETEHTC
The assay is described as follows: TRPM1 promoter luciferase signal decrease, dose response, MITF inhibitor project, cell-based, SK-MEL-5, cherry-picked, set 3 (AID 493073).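 Also: SK-MEL-5 melanoma cells with luciferase driven by the MITF target TRPM1 promoter.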 The assay is classed as functional.

Assay [4] has as its target T2, Low molecular weight phosphotyrosine protein phosphatase (Homo sapiens, UniProt P24666).
T2 sequence (P24666 whole entry): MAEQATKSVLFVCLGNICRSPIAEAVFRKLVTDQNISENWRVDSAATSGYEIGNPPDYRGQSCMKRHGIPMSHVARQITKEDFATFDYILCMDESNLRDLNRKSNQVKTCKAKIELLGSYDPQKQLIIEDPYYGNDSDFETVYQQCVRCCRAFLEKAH
The format is functional. Particulars: read-out: IC50_Mean.

Assay [5] in a line: inhibitors of PGC1a acetylation in cells, dose response, cell-based, cherry-picked samples (AID 720514).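 Also: potency may reflect raised or lowered acetylation signal.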 The assay is classed as functional.
For assay [6], the target named is T2, Low molecular weight phosphotyrosine protein phosphatase. The format is functional. The conditions noted are these: read-out: IC50_Mean. This is another data set of the same source.
The subject of assay [7] is Escherichia coli. Description: microbe, parasite or virus in culture.
Assay [8] addresses Voltage-dependent T-type calcium channel subunit alpha-1H (Homo sapiens, UniProt O95180). The format is functional.
Assay [9] deals with SUMO-activating enzyme (Homo sapiens, UniProt Q9UBT2). The assay is described as follows: SUMOylation inhibitor hit validation, confirmation, SUMOylation inhibitor project, biochemical, AlphaScreen (AID 2018). The assay is classed as functional.
In assay [10] the test system is INS1. Description: beta cell apoptosis inhibitors, cytokine rescue, dose response, luminescence, retest (AID 449756).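 Also: cell death triggered by IL-1 beta plus TNF-alpha plus IFN-gamma mixture; protective hits raise ATP signal compared with cytokine alone wells.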 The format is functional, cell-based. The conditions noted are these: Rattus norvegicus.
Assay [11] concerns BJ. Description: cells. The format is functional, cell-based. The conditions noted are these: Homo sapiens.
Assay [12] relates to BJ. The assay is described as follows: cytotoxicity toward BJ-TERT fibroblasts, dose response, cell-based, RAS-independent, luminescence (AID 1933). The format is functional. The conditions noted are these: Homo sapiens.
A short description of assay [13]: cytotoxicity toward DRD oncogenic fibroblasts, dose response, cell-based, non-viral oncogenic, luminescence (AID 1934). The assay is classed as functional. Particulars: Homo sapiens.
Assay [14] is described as follows: CRF-BP/CRF-R2 complex antagonists, dose response, cell-based, uHTS hits, 384-well (AID 651639). The conditions noted are these: read-out: IC50_Mean. The format is functional, Homo sapiens.
The target of assay [15] is T3, Corticotropin-releasing factor receptor 2/Corticotropin-releasing factor-binding protein (Homo sapiens, UniProt P24387+Q13324).
T3 sequence (Q13324 whole entry): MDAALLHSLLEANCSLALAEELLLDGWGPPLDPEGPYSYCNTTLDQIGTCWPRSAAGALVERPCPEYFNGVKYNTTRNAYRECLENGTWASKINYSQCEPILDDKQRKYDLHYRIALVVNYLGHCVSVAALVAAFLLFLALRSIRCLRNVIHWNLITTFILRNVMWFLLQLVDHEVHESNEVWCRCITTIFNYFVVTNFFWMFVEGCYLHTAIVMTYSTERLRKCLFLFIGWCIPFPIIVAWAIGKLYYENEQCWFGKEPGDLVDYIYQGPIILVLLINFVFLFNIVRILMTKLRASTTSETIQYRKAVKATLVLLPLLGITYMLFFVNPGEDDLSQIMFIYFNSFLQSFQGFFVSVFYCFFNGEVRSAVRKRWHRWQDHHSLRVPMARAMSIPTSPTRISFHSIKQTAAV
T3 sequence (P24387 whole entry): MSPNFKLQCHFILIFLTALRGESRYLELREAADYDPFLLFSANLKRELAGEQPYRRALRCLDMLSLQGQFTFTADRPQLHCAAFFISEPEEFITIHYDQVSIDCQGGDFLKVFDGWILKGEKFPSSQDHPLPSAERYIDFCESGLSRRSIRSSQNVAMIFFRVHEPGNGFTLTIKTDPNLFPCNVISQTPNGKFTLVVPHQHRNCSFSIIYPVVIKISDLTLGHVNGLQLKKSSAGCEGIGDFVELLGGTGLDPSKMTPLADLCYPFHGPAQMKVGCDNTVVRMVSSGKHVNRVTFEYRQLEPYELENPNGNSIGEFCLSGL
The assay is described as follows: activators of CRF receptor 2 with binding protein – uHTS hits, confirmation (AID 602473). The assay is classed as functional. The conditions noted are these: read-out: EC50_Mean.

The target of assay [16] is T3, Corticotropin-releasing factor receptor 2/Corticotropin-releasing factor-binding protein. Description: Dose Response confirmation of uHTS hits for small molecule antagonists of the CRF-binding protein and CRF-R2 receptor complex. The conditions noted are these: read-out: IC50_Mean. The assay is classed as functional.
The nature of assay [17]: C. albicans growth with fluconazole, confirmation, fluorescence, retest (AID 2467). The format is functional, cell-based.
A short description of assay [18]: NIH-3T3 fibroblast cytotoxicity, dose response, cytotoxicity control, cell-based, fluorescence, Alamar Blue, secondary assay (AID 2327).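 Also: NIH-3T3 mouse fibroblasts cultured with fluconazole at 8 µg/mL.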 The format is functional.
Assay [19] has as its target ATP-dependent molecular chaperone HSP82 (Candida albicans (strain WO-1) (Yeast), UniProt C4YTQ8). The assay is described as follows: loss of DOC-induced GRE-beta-galactosidase reporter signal, dose response, Hsp90 inhibitor project, S. cerevisiae, luminescence (AID 2400).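 Also: beta-galactosidase luminescence from glucocorticoid response element reporter as proxy for Hsp90 function; inhibitor potency where signal loss means Hsp90 inhibition.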 The format is functional, cell-based.
For assay [20], the target named is T4, Serine/threonine-protein phosphatase (Candida dubliniensis (strain CD36 / CBS 7987 / NCPF 3949 / NRRLY-17841) (Yeast), UniProt B9W6M3).
T4 sequence (B9W6M3 whole entry): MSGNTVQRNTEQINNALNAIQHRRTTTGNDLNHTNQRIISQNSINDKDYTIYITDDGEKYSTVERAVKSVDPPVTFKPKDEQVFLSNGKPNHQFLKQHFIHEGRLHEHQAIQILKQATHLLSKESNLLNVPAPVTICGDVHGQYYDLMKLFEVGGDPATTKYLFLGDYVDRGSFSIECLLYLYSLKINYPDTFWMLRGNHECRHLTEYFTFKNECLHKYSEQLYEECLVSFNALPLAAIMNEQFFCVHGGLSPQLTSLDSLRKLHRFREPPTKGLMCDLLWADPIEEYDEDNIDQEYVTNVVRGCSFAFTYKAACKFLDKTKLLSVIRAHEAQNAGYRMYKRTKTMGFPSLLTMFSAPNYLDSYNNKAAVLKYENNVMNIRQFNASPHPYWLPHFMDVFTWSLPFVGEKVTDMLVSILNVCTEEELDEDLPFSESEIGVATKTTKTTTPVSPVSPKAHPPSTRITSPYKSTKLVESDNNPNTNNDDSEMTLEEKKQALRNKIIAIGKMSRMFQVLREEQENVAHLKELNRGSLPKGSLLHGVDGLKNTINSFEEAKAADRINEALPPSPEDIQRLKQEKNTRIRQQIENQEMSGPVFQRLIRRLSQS
Description: calcineurin pathway inhibitors in yeast reporter, dose response, S. cerevisiae, CDRE-lacZ, luminescence, secondary (AID 2388).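 Also: yeast reporter cells carrying a calcineurin-responsive lacZ construct stimulated with calcium chloride; luminescent beta-galactosidase reporter signal in whole cells rather than isolated phosphatase activity; potency for inhibition where a drop in reporter signal means calcineurin blockade.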 The assay is classed as functional, cell-based.

Ras and Rab interactor 1/Tyrosine-protein kinase ABL1, sequence (P00519 whole entry): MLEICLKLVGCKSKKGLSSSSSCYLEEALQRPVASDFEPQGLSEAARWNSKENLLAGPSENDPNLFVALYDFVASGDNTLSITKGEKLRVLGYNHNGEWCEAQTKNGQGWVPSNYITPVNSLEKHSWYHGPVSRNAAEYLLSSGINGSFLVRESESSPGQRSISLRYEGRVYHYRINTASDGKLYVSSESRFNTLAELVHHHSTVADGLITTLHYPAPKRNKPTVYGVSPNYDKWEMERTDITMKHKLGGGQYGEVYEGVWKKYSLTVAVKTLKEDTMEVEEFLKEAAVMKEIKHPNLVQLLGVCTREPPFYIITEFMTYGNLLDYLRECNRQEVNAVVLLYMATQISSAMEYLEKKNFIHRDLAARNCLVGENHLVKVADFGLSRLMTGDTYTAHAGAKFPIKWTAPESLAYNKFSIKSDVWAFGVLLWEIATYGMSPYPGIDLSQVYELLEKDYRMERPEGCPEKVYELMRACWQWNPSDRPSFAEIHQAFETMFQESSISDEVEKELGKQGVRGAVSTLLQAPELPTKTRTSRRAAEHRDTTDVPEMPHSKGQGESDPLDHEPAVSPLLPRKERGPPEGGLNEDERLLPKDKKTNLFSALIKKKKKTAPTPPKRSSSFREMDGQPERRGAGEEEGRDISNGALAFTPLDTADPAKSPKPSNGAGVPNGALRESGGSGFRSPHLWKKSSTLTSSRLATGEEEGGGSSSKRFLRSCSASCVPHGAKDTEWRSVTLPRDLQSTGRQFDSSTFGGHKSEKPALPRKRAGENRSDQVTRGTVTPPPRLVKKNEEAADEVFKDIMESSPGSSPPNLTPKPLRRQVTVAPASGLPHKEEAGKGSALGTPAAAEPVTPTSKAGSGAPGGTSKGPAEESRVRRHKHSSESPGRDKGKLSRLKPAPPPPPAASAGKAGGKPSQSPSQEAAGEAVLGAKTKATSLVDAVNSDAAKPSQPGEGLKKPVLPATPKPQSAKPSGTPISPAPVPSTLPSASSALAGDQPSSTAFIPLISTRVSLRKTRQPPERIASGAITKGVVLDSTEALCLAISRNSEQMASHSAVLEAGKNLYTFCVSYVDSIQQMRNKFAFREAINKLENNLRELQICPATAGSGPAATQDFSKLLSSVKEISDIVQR
Ras and Rab interactor 1/Tyrosine-protein kinase ABL1, sequence (Q13671 whole entry): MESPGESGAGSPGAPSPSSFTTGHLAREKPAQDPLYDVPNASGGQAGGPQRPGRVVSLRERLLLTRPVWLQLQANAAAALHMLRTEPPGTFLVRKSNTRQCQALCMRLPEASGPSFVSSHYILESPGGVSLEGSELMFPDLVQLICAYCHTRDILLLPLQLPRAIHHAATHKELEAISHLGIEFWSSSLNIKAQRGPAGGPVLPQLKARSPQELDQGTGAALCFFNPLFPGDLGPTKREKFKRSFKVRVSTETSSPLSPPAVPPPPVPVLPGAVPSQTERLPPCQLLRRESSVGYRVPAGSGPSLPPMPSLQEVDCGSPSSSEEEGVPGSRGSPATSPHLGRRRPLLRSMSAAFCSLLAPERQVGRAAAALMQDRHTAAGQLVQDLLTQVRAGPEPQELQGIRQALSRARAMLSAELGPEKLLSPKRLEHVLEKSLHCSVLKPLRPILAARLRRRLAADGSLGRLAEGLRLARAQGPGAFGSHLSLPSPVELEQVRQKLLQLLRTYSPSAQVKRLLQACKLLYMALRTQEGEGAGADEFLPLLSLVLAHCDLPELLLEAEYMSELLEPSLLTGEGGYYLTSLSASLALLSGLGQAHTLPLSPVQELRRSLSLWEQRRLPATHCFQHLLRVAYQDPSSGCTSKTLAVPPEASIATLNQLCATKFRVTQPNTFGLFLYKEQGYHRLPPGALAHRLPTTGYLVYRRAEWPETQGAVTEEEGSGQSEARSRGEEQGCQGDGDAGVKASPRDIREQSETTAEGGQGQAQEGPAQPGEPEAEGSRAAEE
ATP-dependent molecular chaperone HSP82, sequence (C4YTQ8 whole entry): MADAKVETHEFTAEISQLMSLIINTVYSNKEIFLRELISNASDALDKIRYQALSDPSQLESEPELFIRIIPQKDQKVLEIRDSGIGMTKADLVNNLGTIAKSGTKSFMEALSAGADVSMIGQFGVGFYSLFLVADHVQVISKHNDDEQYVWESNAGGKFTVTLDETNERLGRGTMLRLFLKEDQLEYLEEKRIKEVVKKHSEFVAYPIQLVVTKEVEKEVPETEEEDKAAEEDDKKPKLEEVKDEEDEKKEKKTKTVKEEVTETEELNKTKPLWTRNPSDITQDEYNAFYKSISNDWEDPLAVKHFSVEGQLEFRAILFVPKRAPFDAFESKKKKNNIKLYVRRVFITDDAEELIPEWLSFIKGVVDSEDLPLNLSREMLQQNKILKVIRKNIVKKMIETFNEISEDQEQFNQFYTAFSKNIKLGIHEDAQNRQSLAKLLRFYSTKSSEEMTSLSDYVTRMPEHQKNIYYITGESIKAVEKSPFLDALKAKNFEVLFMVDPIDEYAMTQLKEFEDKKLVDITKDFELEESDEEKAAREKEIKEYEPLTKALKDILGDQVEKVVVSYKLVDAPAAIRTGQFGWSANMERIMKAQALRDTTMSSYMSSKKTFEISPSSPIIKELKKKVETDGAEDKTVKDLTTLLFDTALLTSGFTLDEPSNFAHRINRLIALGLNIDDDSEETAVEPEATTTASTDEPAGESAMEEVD
SUMO-activating enzyme, sequence (Q9UBE0 whole entry): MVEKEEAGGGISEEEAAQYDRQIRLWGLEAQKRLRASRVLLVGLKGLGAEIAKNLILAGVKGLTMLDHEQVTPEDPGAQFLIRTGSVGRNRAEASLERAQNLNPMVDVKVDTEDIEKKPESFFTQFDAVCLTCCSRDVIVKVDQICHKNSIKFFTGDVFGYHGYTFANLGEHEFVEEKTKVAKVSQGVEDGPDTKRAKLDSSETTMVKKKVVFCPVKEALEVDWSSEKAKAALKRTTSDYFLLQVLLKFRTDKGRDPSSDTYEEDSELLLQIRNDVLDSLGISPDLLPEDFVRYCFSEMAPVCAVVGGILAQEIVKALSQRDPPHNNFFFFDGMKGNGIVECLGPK
SUMO-activating enzyme, sequence (Q9UBT2 whole entry): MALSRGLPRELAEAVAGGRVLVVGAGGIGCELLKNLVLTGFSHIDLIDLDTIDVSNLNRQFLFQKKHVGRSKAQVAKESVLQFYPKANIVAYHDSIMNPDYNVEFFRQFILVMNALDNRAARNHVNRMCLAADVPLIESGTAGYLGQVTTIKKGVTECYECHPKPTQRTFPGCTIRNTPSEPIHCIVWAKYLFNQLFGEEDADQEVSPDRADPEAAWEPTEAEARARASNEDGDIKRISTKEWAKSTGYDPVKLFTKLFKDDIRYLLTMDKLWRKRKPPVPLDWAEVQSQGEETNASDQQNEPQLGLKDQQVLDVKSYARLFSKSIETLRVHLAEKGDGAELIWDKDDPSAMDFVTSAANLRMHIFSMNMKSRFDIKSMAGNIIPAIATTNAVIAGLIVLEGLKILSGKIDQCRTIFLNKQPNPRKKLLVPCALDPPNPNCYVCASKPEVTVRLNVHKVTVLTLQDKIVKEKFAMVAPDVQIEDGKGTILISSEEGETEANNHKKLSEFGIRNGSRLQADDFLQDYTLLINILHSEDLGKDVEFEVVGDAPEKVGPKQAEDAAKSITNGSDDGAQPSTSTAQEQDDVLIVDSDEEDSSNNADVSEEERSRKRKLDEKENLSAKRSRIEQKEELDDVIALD

With `CCCn1nc(C(=O)N(C)CC(=O)Nc2ccc(OCC)c(OCC)c2)c2ccccc2c1=O`, in [1], the IC50 is 10.5 µM (inactive).
Turning to `Cc1ccc2c(c1)COc1c3ccc(C(=O)O)cc3nn1-2`, the IC50 in assay [2] was > 80 µM (inactive). The half-maximal activity concentration (AC50) in [3] is 2.23 µM (active).
`Cc1c(C(=O)NCCN2CCOCC2)oc2ccc(Br)cc12`: the IC50 in assay [1] is 1.02 µM (active).
Take `COc1ccc(Nc2ccnc3ccccc23)cc1`: the figures for the IC50 in [4] and in [6] were 30.1 µM (inactive) and 23.4 µM (inactive), respectively. The AC50 in assay [5] is 28.3 µM (active).
Turning to `O=C(Nc1ccc(Br)cc1)C1CC(O)CN1C(=O)Oc1ccccc1` (centres undefined), the half-maximal activity concentration (AC50) in assay [7] is 42.7 µM (active).
As to `Cc1ccc(NC(=O)Cn2c(=O)oc3cc(S(=O)(=O)N4CCC(C)CC4)ccc32)cc1C`, in assay [8], the EC50 was 5.17 µM (active). In addition, in assay [9], the IC50 is 24.4 µM (active). For the same compound, in assay [10], the AC50 was 8.95 µM (active).
`Cc1cc(C(=O)N2CC=C(c3ccccc3)CC2)c2ccccc2n1`: the IC50 in [2] is > 80 µM (inactive). The results for the EC50 in assay [11], in assay [12] and in assay [13] were 86.7 µM (active), 1.32 µM (active) and 653 nM (active), respectively.
With `Oc1nc2ccccc2n1C1CCN(C(c2ccnc3ccccc23)c2nnnn2-c2ccc3c(c2)OCCO3)CC1` (centres undefined), the IC50 in assay [1] was 15.3 µM (inactive).
Consider `N#CN=C(Nc1cccc(F)c1)SCc1ccccc1F`, for which the IC50 in assay [14] is 1.67 µM (active); in [16], 6.82 µM (active). Also, the EC50 in [15] was > 53 µM (inactive).
Turning to `Nc1nc(=O)[nH]cc1F` [FLUCYTOSINE], the EC50 in assay [17] is 252 nM (active); in assay [18], > 160 µM (inactive); in assay [19], > 160 µM (inactive); in assay [20] it was > 180 µM (inactive).
For `COCCn1c(=O)[nH]c(=O)c2cc(C(=O)c3cc(Cl)ccc3O)cnc21`, the EC50 in assay [17] was 1120 nM (active); in assay [18] it was > 160 µM (inactive); in [19], > 160 µM (inactive); in [20], > 180 µM (inactive).
As for `CN(CC(=O)NCCN1CCOCC1)S(=O)(=O)c1ccc(Cl)cc1`, the AC50 in assay [7] was 23.2 µM (active).
In the case of `CSc1c(C#N)sc(=S)n1-c1ccc(C)cc1`, the IC50 in assay [14] was > 20 µM (inactive); in [16], 11.9 µM (active). In addition, the EC50 in assay [15] is > 53 µM (inactive).
Regarding `O=c1cc(-c2cc3ccccc3o2)c2cc(O)ccc2o1`, the IC50 was 24.1 µM (inactive) in [4] and 19.7 µM (active) in assay [6].
Regarding `O=C(Nc1ccsc1C(=O)NC1CCCCC1)c1ccccc1`, the AC50 in [7] is 26 µM (active).
